Results reported in PubChem BioAssay AID588377 (NMMLSC, 2011).

Each compound was assayed against Cell division control protein 42 homolog (Homo sapiens) (UniProt P60953) (assay: inhibition of fluorescent GTP binding to Cdc42 – biochemical, multiplex bead flow cytometry, round 1, SAR follow-up (AID 588377)). Settings: GST-Cdc42 wt beads.
Chain of Cell division control protein 42 homolog (Homo sapiens) (P60953 whole entry, looked up): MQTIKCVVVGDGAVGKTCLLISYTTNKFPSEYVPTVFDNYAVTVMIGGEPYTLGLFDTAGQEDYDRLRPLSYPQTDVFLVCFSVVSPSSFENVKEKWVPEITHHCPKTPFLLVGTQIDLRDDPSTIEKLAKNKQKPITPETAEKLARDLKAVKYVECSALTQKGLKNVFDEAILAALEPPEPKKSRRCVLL

Row | EC50 | SMILES
1 | 3.94 µM | O=C(C#Cc1ccccc1)c1cccc([N+](=O)[O-])c1
2 | 0.823 µM | COc1ccc(C2CC(c3ccccc3)=NN2c2ccc(S(N)(=O)=O)cc2)cc1 (stereo not drawn)
3 | 4.13 µM | NS(=O)(=O)c1ccc(N2N=C(c3ccccc3)CC2c2ccccc2)cc1 (stereo not drawn)
